Assay results from patent US20170065564A1, “BIS-CYCLIC GUANIDINE COMPOUND COMPOSITIONS, METHODS OF USE AND TREATMENT THEREOF” (University of South Florida, priority 2014, published 2017).
≈ marks a conversion by molar mass, not a printed value.

Assays:
[1] = system: Staphylococcus aureus (USA300 strain FPR3757); assay: Murine model of lethal peritonitis; format: in vivo, mice; settings: 2× MIC, I.M., 1 h post-infection, six mice per group
Description: Using MRSA as a representative ESKAPE organism, we infected mice with 1×10^8 bacterial cells in 5% mucin via intraperitoneal injection. At 1 h post-infection, mice were then I.V. injected with either vancomycin (positive control), or I.M. with our front runner compounds.
Six mice per group were injected with 1×10^8 CFU ml^−1 of Staphylococcus aureus (USA300 strain FPR3757) in PBS containing 5% mucin. […] Mice were monitored twice daily for five days to assess mortality. The clinical endpoint of this study was when the mice reached a pre-moribund state. Characteristics of pre-moribund state include: hunched posture, rapid, shallow and/or labored breathing, ruffled fur, lethargy, failure to respond to stimuli, soiled anogenital area, paralysis, paresis, head tilt, circling, vocalizations, non-purposeful movements and/or were unable to eat or drink. Those mice reaching this state prior to the completion of the 5 day infection period were euthanized. The number of mice surviving between control and treatment groups was compared and analyzed for statistical significance using a log rank test.

S. aureus = assay: Resistance serial passage assay; format: cell-based, Staphylococcus aureus; settings: 8 passages, concentration doubled each day
Description: ESKAPE pathogens were grown overnight in liquid media at 37° C. These cultures were then diluted 1:100 in fresh media, and seeded into a 96-well plate. Lead bis-cyclic guanidines or control agents were added to respective wells at half MIC concentrations. Plates were then incubated for 24 hours at 37° C., with bacteria removed from these cultures on the following day, to inoculate fresh media (1:100 dilution) containing compounds at a 2-fold higher concentrations. These were then grown overnight, and the procedure repeated for a total of eight days. […] Each experiment was performed in triplicate, yielding identical results.

human A549 cells = assay: Cytotoxicity assay (MTT); format: cell-based
Description: Cytotoxicity assays were performed using human A549 cells (adenocarcinomic human alveolar epithelial cells), as described by us previously.^44 Briefly, cells were cultured in F-12K Nutrient mixture (Kaighn's Modification) media containing L-glutamine, supplemented with 10% fetal bovine serum and 1% penicillin-streptomycin for 3 days at 37° and 5% CO2. Cells were then diluted to 1.0×10^5 ml^−1 using F-12K supplemented media, and added to 96 well tissue culture plates at a volume of 100 μl. Plates were incubated for 24 hours at 37° C. and 5% CO2, allowing the cells to adhere to the plastic. […] Plates were then incubated for 48 hours at 37° C. and 5% CO2. After 48 hours the media was removed, and new media added containing MTT (3-(4, 5-dimethylthiazol-2-yl)-2, 5-diphenyltetrazolium bromide), followed by incubation for four hours at 37° C. and 5% CO2. After 4 h, 50 μl of media was removed, replaced with DMSO and incubated for ten minutes at 37° C. in order to solubilize any formazan produced. A Biotek plate reader was used to measure the absorbance of formazan production at […], and IC50 values were determined for each of the five compounds. Front runners were solvated in 45% w/v (2-hydroxypropyl)-β-cyclodextrin in water for these studies; which was also used alone as a negative control. IC50 values were determined for each compound by comparison to vehicle only controls, to assess toxicity to human cells.

Staphylococcus aureus = assay: MIC micro broth dilution assay; format: cell-based; settings: for MIC: Staphylococcus aureus
Summary of the method: (§1)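 Strains were multidrug-resistant clinical isolates grown in LB (Gram-negative) or TSB (Gram-positive), diluted 1:1,000 before compound addition.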

ESKAPE pathogens = assay: MIC micro broth dilution assay, statements and stacked scores over all ESKAPE pathogens; format: cell-based; settings: letters E,S,K,A,P,E = ESKAPE pathogens, — = none
Summary of the method: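 Overnight cultures of multidrug-resistant clinical isolates, diluted 1 in 1,000 (Gram-positives in TSB, Gram-negatives in LB), were exposed to decreasing compound concentrations in DMF (≤2.0%) at 37° C. MIC was read visually as no turbidity after 24 hours, in triplicate. Broad-spectrum activity was ranked by stacked scores.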

Enterococcus faecium = assay: MIC micro broth dilution assay; format: cell-based; settings: for MIC: Enterococcus faecium
Summary of the method: as §1

Enterobacter cloacae = assay: MIC micro broth dilution assay; format: cell-based; settings: for MIC: Enterobacter cloacae
Summary of the method: as §1

**Q.** How did the “survival of infected mice over 5 day infection period” value [1] turn out when `CCCCCCCN1C(=N)N(CCCC[C@H]2CNC(=N)N2CCc2cccc(C(F)(F)F)c2)C[C@@H]1CCCC` [Compound 1] was run?
**A.** all mice survived

**Q.** And the “increase in MIC after serial passage” value (S. aureus)?
**A.** two-fold

**Q.** And the “A549 cell recovery compared to vehicle only controls” value (human A549 cells; 225 μM (highest concentration tested))?
**A.** around 40%

**Q.** And the IC50 (human A549 cells; Homo sapiens, A549, MTT, 48 hours)?
**A.** 164 µM

**Q.** And the “stacked score activity, 100/MIC, S” value (Staphylococcus aureus; S. aureus)?
**A.** 50

**Q.** What about the MIC (Staphylococcus aureus; S. aureus isolate 542) of the same molecule?
**A.** 2 µM (≈ 1.1 µg/mL)

**Q.** What about the MIC (Staphylococcus aureus; S. aureus isolate 626) of the same molecule?
**A.** 2 µM (≈ 1.1 µg/mL)

**Q.** And the MIC (Staphylococcus aureus; S. aureus isolate 635)?
**A.** 2 µM (≈ 1.1 µg/mL)

**Q.** What about the MIC (Staphylococcus aureus; S. aureus isolate 648) of the same molecule?
**A.** 2 µM (≈ 1.1 µg/mL)

**Q.** What about the MIC (Staphylococcus aureus; S. aureus isolate 690) of the same molecule?
**A.** 2 µM (≈ 1.1 µg/mL)

**Q.** What about the MIC (Staphylococcus aureus; S. aureus isolate 693) of the same molecule?
**A.** 2 µM (≈ 1.1 µg/mL)

**Q.** And the MIC (Staphylococcus aureus; S. aureus isolate 715)?
**A.** 2 µM (≈ 1.1 µg/mL)

**Q.** And the MIC (Staphylococcus aureus; S. aureus isolate 728)?
**A.** 2 µM (≈ 1.1 µg/mL)

**Q.** What about the MIC (Staphylococcus aureus; S. aureus isolate 834) of the same molecule?
**A.** 2 µM (≈ 1.1 µg/mL)

**Q.** And the MIC (Staphylococcus aureus; S. aureus isolate 1043)?
**A.** 2 µM (≈ 1.1 µg/mL)

**Q.** What about the MIC (Staphylococcus aureus; S. aureus isolate 1049) of the same molecule?
**A.** 2 µM (≈ 1.1 µg/mL)

**Q.** And the MIC (Staphylococcus aureus; purified compound, Table 1)?
**A.** 1.63 µM (≈ 0.898 µg/mL)

**Q.** What about the “pathogens against which the compound showed activity at 5 ug/ml” value (ESKAPE pathogens; dose 5 ug/ml) of the same molecule?
**A.** ESKAPE

**Q.** What about the “pathogens against which the compound showed activity at 10 ug/ml” value (ESKAPE pathogens; dose 10 ug/ml) of the same molecule?
**A.** ESKAPE

**Q.** And the “pathogens against which the compound showed activity at 25 ug/ml” value (ESKAPE pathogens; dose 25 ug/ml)?
**A.** ESKAPE

**Q.** And the “stacked score activity, 100/MIC, E” value (Enterococcus faecium; E. faecium)?
**A.** 20

**Q.** What about the MIC (Enterococcus faecium; E. faecium isolate 1406) of the same molecule?
**A.** 2 µM (≈ 1.1 µg/mL)

**Q.** What about the MIC (Enterococcus faecium; E. faecium isolate 1407) of the same molecule?
**A.** 2 µM (≈ 1.1 µg/mL)

**Q.** What about the MIC (Enterococcus faecium; E. faecium isolate 1432) of the same molecule?
**A.** 2 µM (≈ 1.1 µg/mL)

**Q.** What about the MIC (Enterococcus faecium; E. faecium isolate 1438) of the same molecule?
**A.** 2 µM (≈ 1.1 µg/mL)

**Q.** What about the MIC (Enterococcus faecium; E. faecium isolate 1439) of the same molecule?
**A.** 2 µM (≈ 1.1 µg/mL)

**Q.** What about the MIC (Enterococcus faecium; E. faecium isolate 1443) of the same molecule?
**A.** 2 µM (≈ 1.1 µg/mL)

**Q.** What about the MIC (Enterococcus faecium; E. faecium isolate 1444) of the same molecule?
**A.** 2 µM (≈ 1.1 µg/mL)

**Q.** And the MIC (Enterococcus faecium; E. faecium isolate 1449)?
**A.** 2 µM (≈ 1.1 µg/mL)

**Q.** What about the MIC (Enterococcus faecium; E. faecium isolate 1450) of the same molecule?
**A.** 2 µM (≈ 1.1 µg/mL)

**Q.** And the MIC (Enterococcus faecium; E. faecium isolate 1451)?
**A.** 2 µM (≈ 1.1 µg/mL)

**Q.** And the MIC (Enterococcus faecium; purified compound, Table 1)?
**A.** 1.63 µM (≈ 0.898 µg/mL)

**Q.** And the “stacked score activity, 100/MIC, E” value (Enterobacter cloacae; E. cloacae)?
**A.** 20

**Q.** And the MIC (Enterobacter cloacae; E. cloacae isolate 1404)?
**A.** 2 µM (≈ 1.1 µg/mL)

**Q.** And the MIC (Enterobacter cloacae; E. cloacae isolate 1405)?
**A.** 5 µM (≈ 2.75 µg/mL)

**Q.** What about the MIC (Enterobacter cloacae; E. cloacae isolate 1430) of the same molecule?
**A.** 3 µM (≈ 1.65 µg/mL)

**Q.** And the MIC (Enterobacter cloacae; E. cloacae isolate 1431)?
**A.** 5 µM (≈ 2.75 µg/mL)

**Q.** What about the MIC (Enterobacter cloacae; E. cloacae isolate 1445) of the same molecule?
**A.** 3 µM (≈ 1.65 µg/mL)

**Q.** What about the MIC (Enterobacter cloacae; E. cloacae isolate 1446) of the same molecule?
**A.** 7 µM (≈ 3.86 µg/mL)

**Q.** And the MIC (Enterobacter cloacae; E. cloacae isolate 1447)?
**A.** 5 µM (≈ 2.75 µg/mL)

**Q.** What about the MIC (Enterobacter cloacae; E. cloacae isolate 1448) of the same molecule?
**A.** 3 µM (≈ 1.65 µg/mL)

**Q.** And the MIC (Enterobacter cloacae; E. cloacae isolate 1454)?
**A.** 3 µM (≈ 1.65 µg/mL)

**Q.** And the MIC (Enterobacter cloacae; E. cloacae isolate 1455)?
**A.** 2 µM (≈ 1.1 µg/mL)

**Q.** What about the MIC (Enterobacter cloacae; purified compound, Table 1) of the same molecule?
**A.** 1.63 µM (≈ 0.898 µg/mL)

**Q.** And the “concentration inhibiting 90% of isolates” value (Enterobacter cloacae; panel of E. cloacae clinical isolates)?
**A.** 10 µM
